# Experimental data as given in PMC12867150, “A fungi-derived cyclic peptide enhances Th9-mediated antitumor immunity by targeting ZAP70 and SREBP1” (The Journal of Clinical Investigation, 2025).
# Values joined by “and” are separate entries in the source; they are usually repeats but may differ in a detail not shown here. Equal entries are not always repeated.
# Legend:
# [1] = test system: Th9 cells; experiment: Seahorse oxygen consumption rate, mitochondrial stress test (Figure 4F-H); format: cell-based, mouse
# Description: After stimulation, cells were washed, resuspended in Seahorse XF assay medium (Agilent Technologies; pH 7.40–7.45, catalog 103576-100) and seeded at 5 × 10^5 cells per well in Seahorse XF96 microplates. Plates were centrifuged at 400 × g for 5 minutes to promote adherence and monolayer formation, and all conditions were tested in quadruplicate.
# Oxidative phosphorylation was assessed on the same instrument using the XFe96 Mitochondrial Stress Test Kit (Agilent Technologies, catalog 103015-100). Oligomycin (1.5 μM), FCCP (0.5 μM), and rotenone plus antimycin A (0.5 μM each) were injected sequentially to measure OCR as a proxy for oxidative phosphorylation. The mitochondrial stress response was derived from OCR values obtained before and after each injection.
# [2] = test system: dendritic cells (DCs); experiment: Flow cytometry of dendritic cells (S1J-K); format: in vivo, mouse; design: key to Frequencies of DC in Spleen / Frequencies of DC in LN: % of cells; settings: for Frequencies of DC in LN: Supplemental Figure 1K left; for number of DC in LN: Supplemental Figure 1K right; for DC (CD11c) gate number: representative flow plot; for Frequencies of DC in Spleen: Supplemental Figure 1J left; for number of DC in Spleen: Supplemental Figure 1J right
# Description: C57BL/6 mice were subcutaneously injected with 5 × 10^5 B16-OVA melanoma cells. Five days after tumor implantation, mice received an intravenous infusion of 2 × 10^6 in vitro–differentiated Th9 cells (cultured for 5 days), which were derived from OT-II CD45.1 donor mice, accompanied by 4 × 10^5 OVA peptide–pulsed DCs via the tail vein. To enhance T cell engraftment and facilitate lymphodepletion, a single intraperitoneal injection of cyclophosphamide (200 mg/kg, Sigma, catalog C0768) was administered 1 day prior to T cell transfer. Mice were euthanized at designated time points for the collection and analysis of spleens, tumor-draining lymph nodes, and tumor tissues.
# Details regarding staining panels (human and mouse), reagents (including clones and catalog numbers), acquisition settings, compensation/controls, and analysis procedures are provided in Supplemental Methods. […]
# Figure S1. EpA enhances immune responses. […]
# Representative plots, frequencies, and total numbers of dendritic cells (DCs) in […]
# spleens (J) and LNs (K). […]
# Statistical analysis was performed using two-way ANOVA with Tukey’s post hoc test (A), one-way ANOVA with Tukey’s post hoc test (B) or two-tailed unpaired Student’s t-test (D and G–M). ns, not significant. *p < 0.05, **p < 0.01, ****p < 0.0001.
# (also on this page, place not known: Mouse weight (g) CtrlEpA CtrlEpA CtrlEpA0 I CD45.1+ T cells (%) CtrlEpA CD4+ T cells (%) CtrlEpA CtrlEpA CtrlEpA FSC CD8 CD8 FSC FSC FSC BNumber of CD45.1+ T cells (×103 per mgĎ Number of CD4+ T cells (×104 per mgĎ DC (%)NK cells (%) NK cells (%) DC (%) Number of DC (×103 per mg) Number of NK cells (×105) Number of NK cells (×103 per mg) Number of DC (×105) FSC FSC FSC CD8 CtrlEpA CtrlEpA CtrlEpA CD8+ T cells (%) Number of CD8+ T cells (×104 per mgĎ nsns ns nsns ns 40 IL-6 (pg/ml))
# [3] = test system: human Th9 CAR T cells; experiment: Intracellular ATP of human Th9 CAR T cells (S9F); format: cell-based; settings: result in words
# Description: Intracellular adenosine triphosphate (ATP) levels were measured using a chemiluminescent ATP assay kit (Beyotime, catalog S0026) according to the manufacturer’s protocol. Briefly, cells were lysed and incubated with the luciferase-based detection reagent, and the resulting luminescent signal was detected using an Infinite M200 multimode microplate reader (TECAN). ATP concentrations were calculated based on a standard curve and normalized to cell number or protein content where applicable.
# Ct EpA Fat Fat Ct EpA Fat Fat
# (A) Flow-cytometric analysis of intracellular IL-9 expression in human Th9 cells […]
# (B) Flow-cytometric assessment of mitochondrial mass using Mito Tracker in human Th9 cells treated as in (A) (n = 3).
# (C) Flow-cytometric analysis of infection efficiency in Th9 cells transduced with a CD19-directed CAR lentivirus. (D and E) Flow-cytometric analysis of IL-9 expression in human Th9 CAR-T cells on days 5 and 6 of in vitro differentiation, showing representative plots (D) and quantification (E) (n = 3). […]
# (G) Flow-cytometric analysis of mitochondrial mass using Mito Tracker in human Th9 CAR-T c e l l s (n = 3). (H and I) Flow-cytometric analysis of granzyme B⁺ CAR-Th9 cells isolated from spleens after adoptive transfer, showing representative plots (H) and quantification (I) (n = 5 mice per group). […]
substance,measurement,setting,value
anteiso-C15 Leu7 surfactin [EpA],"OCR, basal and maximal respiration","[1]; EpA 10 μM, 4 days, result in words",higher basal and maximal respiration
same,Basal Oxygen Consumption Rate,"[1]; Figure 4G, individual replicates, (n = 5), in pmol/min (unit assumed)",169.53 and 169.91 and 173.53 and 152.33 and 158.62
same,Max Oxygen Consumption Rate,"[1]; Figure 4H, individual replicates, (n = 5), in pmol/min (unit assumed)",295.4 and 261.85 and 290.65 and 188.88 and 233.85
same,Frequencies of DC in LN,"[2]; LN, replicate 1",2.19
same,Frequencies of DC in LN,"[2]; LN, replicate 2",1.85
same,Frequencies of DC in LN,"[2]; LN, replicate 3",1.69
same,Frequencies of DC in LN,"[2]; LN, replicate 4",1.46
same,number of DC in LN,"[2]; LN, replicate 1",3234.29
same,number of DC in LN,"[2]; LN, replicate 2",2390.2
same,number of DC in LN,"[2]; LN, replicate 3",1334.11
same,number of DC in LN,"[2]; LN, replicate 4",1093.89
same,DC (CD11c) gate number,"[2]; LN, Figure S1K",2.19
same,Frequencies of DC in Spleen,"[2]; Spleen, replicate 1",1.58
same,Frequencies of DC in Spleen,"[2]; Spleen, replicate 2",1.85
same,Frequencies of DC in Spleen,"[2]; Spleen, replicate 3",1.61
same,Frequencies of DC in Spleen,"[2]; Spleen, replicate 4",3.57
same,number of DC in Spleen,"[2]; Spleen, replicate 1",143005
same,number of DC in Spleen,"[2]; Spleen, replicate 2",161881
same,number of DC in Spleen,"[2]; Spleen, replicate 3",145729
same,number of DC in Spleen,"[2]; Spleen, replicate 4",275281
same,DC (CD11c) gate number,"[2]; Spleen, Figure S1J",1.85
same,DC frequencies and total counts,"[2]; spleens and lymph nodes, result in words",significantly elevated
same,"ATP output, Th9 CAR T",[3],elevated
